EC50 and IC50 data for 16 compounds are collected here from US12060351B2, “Thiadiazole IRAK4 inhibitors” (Gilead Sciences, Inc., priority 2018, dated 2024).

Like-named read-outs stand apart in the source and are kept apart here.

One assay deals with TNFα. The assay is described as follows: IRAK4 Monocyte TNFα Cell Based Assay (LPS-stimulated, TR-FRET TNFα detection). The settings on record: human monocytes, LPS-stimulated, Table 2 second part (compounds 33-343), read-out: EC50 MONO TNF HTRF. Set-up: species or system human. On the procedure: IRAK4 Monocyte TNFα Cell Based Assay Procedure:
The cell suspension was then plated at a density of 5,000 cells/well onto black 384 well Greiner clear bottom plates. Plates were pre-spotted with test compounds and serially diluted in DMSO where 40 nL/well were delivered using the Echo 550 acoustic liquid dispenser (Labcyte®) for a final DMSO concentration of 0.1%. Plated cells were treated with compound for 1 hour at 37° C. Cells were then stimulated with 50 pg/ml of LPS (Sigma) excluding outside columns of plate used for unstimulated cell control wells. Cells were incubated for an additional 4 hours at 37° C. Cells were then spun out of the media and 5 μl of sample were taken and analyzed for total TNFα content using the TR-FRET Human TNFα detection system (CisBio). This system utilizes two labeled antibodies (cryptate and XL665) that bind to two different epitopes of the TNFα molecule and produce FRET signal proportional to the concentration of TNFα in the sample. Detection antibodies are mixed 50:50 and 5 μL were dispensed into each well. Plates were covered with clear seals and incubated at room temp overnight. […] Percent of control was calculated as follows: % Control=100×(RatioSample−Ratio0% Stimulation)/(Ratio100% Stimulation−Ratio0% Stimulation) where unstimulated cells (0% stimulation) were the negative control and stimulated cells (100% stimulation) were used as the positive control.
(In general: Time-resolved FRET reads energy transfer from a long-lived donor to a nearby acceptor.)

The next assay deals with T1, IRAK4 enzyme (Homo sapiens, UniProt Q9NWZ3).
T1 construct: purchased Carna Biosciences, Chuo-ku, Kobe, Japan
T1 sequence (Q9NWZ3 1-460): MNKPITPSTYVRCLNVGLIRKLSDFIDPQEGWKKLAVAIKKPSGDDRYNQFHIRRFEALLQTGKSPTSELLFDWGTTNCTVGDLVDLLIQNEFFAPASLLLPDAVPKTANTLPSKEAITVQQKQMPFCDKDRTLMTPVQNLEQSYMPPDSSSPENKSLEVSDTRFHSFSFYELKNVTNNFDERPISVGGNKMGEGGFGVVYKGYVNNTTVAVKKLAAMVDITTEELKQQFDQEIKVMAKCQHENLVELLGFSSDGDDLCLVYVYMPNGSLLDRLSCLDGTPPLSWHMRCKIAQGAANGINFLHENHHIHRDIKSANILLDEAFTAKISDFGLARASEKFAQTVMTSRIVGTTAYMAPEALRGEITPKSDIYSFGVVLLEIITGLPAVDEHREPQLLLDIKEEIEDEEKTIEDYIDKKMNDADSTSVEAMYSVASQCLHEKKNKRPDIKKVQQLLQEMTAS
The assay is described as follows: IRAK4 Biochemical Assay (TR-FRET, STK1 KinEASE). The settings on record: 500 μM ATP, Table 2 second part (compounds 33-343), read-out: IC50 IRAK4-HTBS. On the procedure:
IRAK4 enzyme (Carna Biosciences, Chuo-ku, Kobe, Japan) activity was measured by detecting phosphorylated peptide substrate formation using an antibody against the phosphorylated peptide substrate. This is a time-resolved fluorescence resonance energy transfer (TR-FRET) immunoassay, based on the STK1 KinEASE Assay (Cisbio, Bedford, Massachusetts). The assay was designed as a simple two-step, endpoint assay (a 5 μl enzyme reaction followed by 5 μl stop and detect Solution) performed in ProxiPlate-384 Plus plates (Perkin Elmer, Waltham, Massachusetts). […] Compounds diluted in DMSO were spotted into 384 well plates using a Labcyte® Echo 550 Liquid Handling System prior to addition of IRAK4 enzyme and peptide substrate. Reaction solutions were delivered using a Multi-Flo (Bio-Tek Instruments). The enzyme and peptide solution was incubated with compound for 15 minutes at room temp before the reaction was initiated by the addition of ATP. The standard 5 μl reaction mixture contained 500 μM ATP, 2 μM peptide (STK1 Peptide), 0.75 nM of IRAK4 in reaction buffer (50 mM HEPES, pH 7.0, 0.02% NaN3, 0.01% BSA, 0.1 mM Orthovanadate, 5 mM MgCl2, 0.025% NP-40, 1 mM DTT). After 120 min of incubation at room temperature, 5 μl of Stop and Detect Solution (1:100 Cryptate labeled anti-phosphorylated peptide antibody solution and 125 nM Tracer in a 50 mM HEPES pH 7.0 detection buffer containing sufficient EDTA) was added. The plate was then further incubated for 60 minutes at room temperature and read on Envision 2103 Multilabeled reader (PerkinElmer) with excitation/emission/FRET emission at 340 nm/615 nm/665 nm, respectively. Fluorescence intensities at 615 nm and 665 nm emission wavelengths were expressed as a ratio (665 nm/615 nm).

The EC50 is the concentration needed to bring the measured effect to its halfway point. A word on the IC50: it is the concentration at which inhibition is half-maximal.

Regarding “7-(5-(5-(4-aminobicyclo[2.2.2]octan-1-yl)-1,3,4-thiadiazol-2-yl)-4-((tetrahydro-2H-pyran-4-yl)amino)pyridin-2-yl)pyrrolo[1,2-b]pyridazine-3-carbonitrile [Example 336]”, in the assay with TNFα, the half-maximal effective concentration (EC50) amounted to 11 nM. The IC50 on IRAK4 enzyme is 0.7 nM. In the case of `CC(=O)N[C@@H]1[C@@H]2CN(c3nnc(-c4cnc(-c5ccc6cc(C#N)cnn56)cc4NC(C)C)s3)C[C@@H]21` [Compound 239, N-((1R,5S,6r)-3-(5-(6-(3-cyanopyrrolo[1,2-b]pyridazin-7-yl)-4-(isopropylamino)pyridin-3-yl)-1,3,4-thiadiazol-2-yl)-3-azabicyclo[3.1.0]hexan-6-yl)acetamide], in the assay with TNFα (Homo sapiens, Monocyte), the EC50 was found to be 4.9 nM. In addition, the IC50 at IRAK4 enzyme stood at 0.11 nM. As for `CC(=O)N[C@H]1[C@@H]2CN(c3nnc(-c4cnc(-c5ccc6cc(C#N)cnn56)cc4NC(C)C)s3)C[C@@H]21` [Compound 240, N-((1R,5S,6s)-3-(5-(6-(3-cyanopyrrolo[1,2-b]pyridazin-7-yl)-4-(isopropylamino)pyridin-3-yl)-1,3,4-thiadiazol-2-yl)-3-azabicyclo[3.1.0]hexan-6-yl)acetamide], the EC50 in the assay on TNFα (Homo sapiens, Monocyte) was 8.9 nM. Besides, on IRAK4 enzyme, the IC50 was determined as 0.15 nM. The corresponding values for `CC(=O)N[C@H]1CC[C@H](c2nnc(-c3cnc(-c4ccc5cc(C#N)cnn45)cc3NC34CCC(O)(CC3)CC4)s2)CC1` [Compound 241, N-((1r,4r)-4-(5-(6-(3-cyanopyrrolo[1,2-b]pyridazin-7-yl)-4-((4-hydroxybicyclo[2.2.2]octan-1-yl)amino)pyridin-3-yl)-1,3,4-thiadiazol-2-yl)cyclohexyl)acctamide] are 4.8 nM and 1.39 nM. The corresponding values for `CC(=O)N[C@H]1CC[C@H](c2nnc(-c3cnc(-c4ccc5cc(C#N)cnn45)cc3N[C@H]3C[C@@](C)(O)C3)s2)CC1` [Compound 243, N-((1R,4r)-4-(5-(6-(3-cyanopyrrolo[1,2-b]pyridazin-7-yl)-4-(((1s,3S)-3-hydroxy-3-methylcyclobutyl)amino)pyridin-3-yl)-1,3,4-thiadiazol-2-yl)cyclohexyl)acetamide] are 6.4 nM and 0.55 nM. The corresponding values for `CC(=O)N[C@H]1CC[C@H](c2nnc(-c3cnc(-c4ccc5cc(C#N)cnn45)cc3N[C@H]3CCC[C@@H](O)C3)s2)CC1` [Compound 245, N-((1S,4r)-4-(5-(6-(3-cyanopyrrolo[1,2-b]pyridazin-7-yl)-4-(((1S,3R)-3-hydroxycyclohexyl)amino)pyridin-3-yl)-1,3,4-thiadiazol-2-yl)cyclohexyl)acetamide] are 3.2 nM and 0.55 nM. For the compound `CC(=O)N[C@H]1CC[C@H](c2nnc(-c3cnc(-c4ccc5cc(C#N)cnn45)cc3NC3CCOCC3)s2)CC1` [Compound 255, N-((1r,4r)-4-(5-(6-(3-cyanopyrrolo[1,2-b]pyridazin-7-yl)-4-((tetrahydro-2H-pyran-4-yl)amino)pyridin-3-yl)-1,3,4-thiadiazol-2-yl)cyclohexyl)acetamide], in the assay with TNFα (Homo sapiens, Monocyte), the EC50 was determined as 5.1 nM. Further, on IRAK4 enzyme, the half-maximal inhibitory concentration (IC50) came out at 0.63 nM. The corresponding values for `CC(C)Nc1cc(-c2ccc3cc(C#N)cnn23)ncc1-c1nnc(N2CCS(=N)(=O)CC2)s1` [Compound 262, 7-(5-(5-(1-imino-1-oxido-116-thiomorpholino)-1,3,4-thiadiazol-2-yl)-4-(isopropylamino)pyridin-2-yl)pyrrolo[1,2-b]pyridazine-3-carbonitrile] are 69.9 nM and 3.81 nM.

Take `CC(=O)N[C@H]1CC[C@H](c2nnc(-c3cnc(-c4ccc5cc(C#N)cnn45)cc3NC3(C)CCOCC3)s2)CC1` [Compound 268, N-((1r,4r)-4-(5-(6-(3-cyanopyrrolo[1,2-b]pyridazin-7-yl)-4-((4-methyltetrahydro-2H-pyran-4-yl)amino)pyridin-3-yl)-1,3,4-thiadiazol-2-yl)cyclohexyl)acetamide]: the 50% effective concentration (EC50) in the assay with TNFα (Homo sapiens, Monocyte) came to 14.1 nM. Also, at IRAK4 enzyme, the 50% inhibitory concentration (IC50) amounted to 0.61 nM.

As to `CC(=O)N[C@@H]1[C@@H]2CC[C@H]1CN(c1nnc(-c3cnc(-c4ccc5cc(C#N)cnn45)cc3NC3(C)CCOCC3)s1)C2` [Compound 272, N-((1R,5S,8s)-3-(5-(6-(3-cyanopyrrolo[1,2-b]pyridazin-7-yl)-4-((4-methyltetrahydro-2H-pyran-4-yl)amino)pyridin-3-yl)-1,3,4-thiadiazol-2-yl)-3-azabicyclo[3.2.1]octan-8-yl)acetamide], the 50% effective concentration (EC50) in the assay on TNFα (Homo sapiens, Monocyte) amounted to 4.1 nM. Moreover, the IC50 at IRAK4 enzyme turned out to be 1.1 nM. Take `CC(C)Nc1cc(-c2ccc3cc(C#N)cnn23)ncc1-c1nnc(N2C3CC2CN(C(=O)CN=S(C)(C)=O)C3)s1` [Compound 276, 7-(5-(5-(3-(2-((dimethyl(oxo)-16-sulfanylidene)amino)acetyl)-3,6-diazabicyclo[3.1.1]heptan-6-yl)-1,3,4-thiadiazol-2-yl)-4-(isopropylamino)pyridin-2-yl)pyrrolo[1,2-b]pyridazinc-3-carbonitrile]: in the assay on TNFα (Homo sapiens, Monocyte), the concentration for a half-maximal effect (EC50) is 7.8 nM. Also, the 50% inhibitory concentration (IC50) on IRAK4 enzyme was found to be 0.89 nM. With `CC(=O)N[C@H]1C[C@H](c2nnc(-c3cnc(-c4ccc5cc(C#N)cnn45)cc3NC(C)C)s2)C1` [Compound 278, N-((1r,3r)-3-(5-(6-(3-cyanopyrrolo[1,2-b]pyridazin-7-yl)-4-(isopropylamino)pyridin-3-yl)-1,3,4-thiadiazol-2-yl)cyclobutyl)acetamide], the concentration giving a half-maximal response (EC50) with TNFα (Homo sapiens, Monocyte) was no less than 10000 nM. The IC50 at IRAK4 enzyme was 0.07 nM. The corresponding values for `CC(=O)N[C@H]1C[C@@H](c2nnc(-c3cnc(-c4ccc5cc(C#N)cnn45)cc3NC(C)C)s2)C1` [Compound 279, N-((1s,3s)-3-(5-(6-(3-cyanopyrrolo[1,2-b]pyridazin-7-yl)-4-(isopropylamino)pyridin-3-yl)-1,3,4-thiadiazol-2-yl)cyclobutyl)acetamide] are 15.9 nM and 0.4 nM. For the compound `CC(=O)N[C@@H]1CCN(c2nnc(-c3cnc(-c4ccc5cc(C#N)cnn45)cc3NC(C)C)s2)C[C@@H]1O` [Example 63, N-((3S,4R)-1-(5-(6-(3-cyanopyrrolo[1,2-b]pyridazin-7-yl)-4-(isopropylamino)pyridin-3-yl)-1,3,4-thiadiazol-2-yl)-3-hydroxypiperidin-4-yl)acetamide], the half-maximal inhibitory concentration (IC50) on IRAK4 enzyme was 0.29 nM.

Take `CC(C)Nc1cc(-c2ccc3cc(C#N)cnn23)ncc1-c1nnc(N2C[C@H]3CC[C@@H](C2)[C@H]3O)s1` [Example 146, 7-(5-(5-((1R,5S,8r)-8-hydroxy-3-azabicyclo[3.2.1]octan-3-yl)-1,3,4-thiadiazol-2-yl)-4-(isopropylamino)pyridin-2-yl)pyrrolo[1,2-b]pyridazine-3-carbonitrile]: the IC50 on IRAK4 enzyme was 0.48 nM. Same read-out and setting: under `CC(C)Nc1cc(-c2ccc3cc(C#N)cnn23)ncc1-c1nnc(N2C[C@H]3CC[C@@H](C2)[C@@H]3O)s1` [Example 154, 7-(5-(5-((1R,5S,8s)-8-hydroxy-3-azabicyclo[3.2.1]octan-3-yl)-1,3,4-thiadiazol-2-yl)-4-(isopropylamino)pyridin-2-yl)pyrrolo[1,2-b]pyridazine-3-carbonitrile] stands 1.57 nM.
